According to a compilation of properties of binary mixtures (doi:10.1007/s10953-011-9788-x):

Assay: xn = mol fraction of the nth substance listed
Details: 101 kPa

Q: With `CCCC[n+]1ccn(C)c1.N[C@@H](CCC(=O)O)C(=O)[O-]` + CO as the compound, how does the viscosity (298.15 K, x2 = 0.1087) read?
A: 59.8 mPa·s

Q: What about the viscosity (298.15 K, x2 = 0.4003) of the same compound?
A: 24.6 mPa·s

Q: And the viscosity (298.15 K, x2 = 0.4998)?
A: 16.4 mPa·s

Q: And the viscosity (298.15 K, x2 = 0.6002)?
A: 9.69 mPa·s

Q: And the viscosity (298.15 K, x2 = 0.8001)?
A: 2.31 mPa·s

Q: And the viscosity (303.15 K, x2 = 0.1087)?
A: 49.9 mPa·s

Q: What about the viscosity (303.15 K, x2 = 0.2002) of the same compound?
A: 39.6 mPa·s

Q: What about the viscosity (303.15 K, x2 = 0.2995) of the same compound?
A: 30.3 mPa·s

Q: What about the viscosity (303.15 K, x2 = 0.4003) of the same compound?
A: 22.2 mPa·s

Q: And the viscosity (303.15 K, x2 = 0.4998)?
A: 15.3 mPa·s

Q: And the viscosity (303.15 K, x2 = 0.7)?
A: 5.48 mPa·s

Q: And the viscosity (303.15 K, x2 = 0.8001)?
A: 2.82 mPa·s

Q: What about the viscosity (303.15 K, x2 = 0.9) of the same compound?
A: 1.48 mPa·s

Q: What about the viscosity (308.15 K, x2 = 0.1087) of the same compound?
A: 39.1 mPa·s

Q: And the viscosity (308.15 K, x2 = 0.2002)?
A: 31.2 mPa·s

Q: What about the viscosity (308.15 K, x2 = 0.2995) of the same compound?
A: 24.1 mPa·s

Q: What about the viscosity (308.15 K, x2 = 0.4003) of the same compound?
A: 18.1 mPa·s

Q: What about the viscosity (308.15 K, x2 = 0.4998) of the same compound?
A: 12.9 mPa·s

Q: And the viscosity (308.15 K, x2 = 0.7)?
A: 5.2 mPa·s

Q: And the viscosity (308.15 K, x2 = 0.9)?
A: 1.33 mPa·s

Q: And the viscosity (313.15 K, x2 = 0.1087)?
A: 31.6 mPa·s

Q: And the viscosity (313.15 K, x2 = 0.2995)?
A: 20 mPa·s

Q: And the viscosity (313.15 K, x2 = 0.4003)?
A: 15 mPa·s

Q: What about the viscosity (313.15 K, x2 = 0.4998) of the same compound?
A: 10.8 mPa·s

Q: And the viscosity (313.15 K, x2 = 0.6002)?
A: 7.3 mPa·s

Q: And the viscosity (313.15 K, x2 = 0.8001)?
A: 2.54 mPa·s

Q: What about the viscosity (313.15 K, x2 = 0.9) of the same compound?
A: 1.24 mPa·s
